Laboratory results reported in patent publication US20160168118A1, “N-(5-QUINOLIN-6-YL)PYRIDIN-3-YL) BENZSULFAMIDE DERIVATIVES, PREPARATION METHOD AND THERAPEUTIC USE THEREOF” (SECOND MILITARY MEDICAL UNIVERSITY, PLA, priority 2012, published 2016).
Converted amounts (≈) assume the structure as drawn. Read-outs that look alike come from different tables or passages of the source.

What was measured:
[1] = Solubility test in buffer solution at pH=1; assay type: physicochemical; details: pH=1 buffer solution, simulated gastric fluid, thermodynamic from solid; buffer solution pH=1
Protocol: Compound 9 1.02 mg was precisely weighed and placed in 1.5 mL of EP tube, and 10 uL pH=1 buffer solution was added, vortexed for 30S and ultrasonic for 20 min. There was a lot of visible turbidity after that.
20 uL buffer was added and ultrasounded and the solution was found still turbid. Turbidity reduced after the solution was diluted to 1 mL and vortexed, while there still exist residual after diluted to 2 mL.

[2] = In vivo pharmacokinetics in SD rats; details: for AUC(0-t): read-out: AUC(0-24); for half-life / bioavailability: rat, plasma; for bioavailability: oral, rats, intragastric 20 mg/kg vs iv 2 mg/kg
Protocol: SD rats, male, 4-6 weeks old, weighing 200-220 g, the total number is 12, were purchased from Shanghai Slac laboratory animal limited liability company, animal production license number: SCXK (Shanghai) 2008-0016, the experimental animals using license number: SCXK (Shanghai) 2007-0005, certificate number: 2007000514232.
SD rats were randomly divided into two groups, numbered A and B, while 6 rats in each group, before the experiment starts, the rats were fasted 12 hours overnight, group A were tail vein injected with compound 9 by dose 2 mg/kg; group B were intragastric administrated with Compound 9 suspensions, of which the dose was calculated as 20 mg/kg;
Group A: tail intravenous injection (i.v.) administrated compound 9. Orbital blood 0.3 mL was taken on 0, 5, 10, 15, 30, 45, 60 min, 2 h, 3 h, 4 h, 6 h, 8 h, 12 h, and was placed in 1.5 mL EP tube coated with heparin, shaked up and down for 3 times, centrifuged at 3500 rpm for 5 min to get supernatant, and was kept in refrigerator at −20° C. to save backup;
Dose was 2 mg/kg (2.6 mL/kg), administered in a concentration of 770 μg/mL, which was dissolved with mixed aqueous solution of 9.4% ethanol and 24.5% isopropanol;
Group B: intragastric administration (i.g.), dose of 20 mg/kg, administered in a concentration of 1.5 mg/mL, and 3.75% Tween 80 was used to dissolve compound 9, gavage dose was (13.3 mL/kg);
Orbital blood 0.5 mL was taken at 0, 5, 10, 15, 30, 45, 60 min, 2 h, 3 h, 4 h, 6 h, 8 h, 12 h, 24 h, and was placed in 1.5 mL EP tube coated with heparin, shaked up and down for 3 times, centrifuged at 3500 rpm for 5 min to get supernatant, and kept in refrigerator at −20° C. to save backup.
Plasma sample 100 μL was precisely measured, put in 1.5 mL plastic centrifuge tube, 10 μL methanol and 190 μL methanol solution of compound 17 (internal standard) of 100.8 ng·mL^−1 were added, vortex mixed for 30 s, centrifuged at 12000r·min^−1 for 10 min, 200 μL supernatant was taken and put into the vial, 5 μL injected for HPLC-MS analysis.
Analytical conditions: column: SHISEIDO MG-C18 (100 mm×3.0 mm, 3.0 μm), mobile phase: acetonitrile: water (containing 0.1% formic acid=25:75 (V/V); flow rate: 0.8 mL·min^−1 analysis time 6 min, column temperature: 25° C., the injection volume: 5 μL, split ratio 2:1. The mass was in ESI source positive ion mode, the capillary voltage was 4000V, drying flow rate was 10 L/min, the atomizing air pressure was 40 psi, temperature of the drying gas was 350° C. Selective ion mode (SIM), the ion of compound 9 was [M+H] ions+m/z 561.2 and that of the internal standard compound 17 [M+H]+m/z 591.2, and the debris voltage was 70 eV.
The data gained were substituted into the accompanying standard curve, thus obtaining the drug concentration in rat plasma.
The pharmacokinetic parameters were analyzed by using non-compartmental model, the peak concentration Cmax and peak time Tmax were taken Found value, and the pharmacokinetic parameters were processed to obtain the pharmacokinetic parameters result of single dose.

PI3Kα = PI3Kα (Homo sapiens, UniProt P42336); assay: Kinase-Glo Luminescent Kinase Assay, PI3Kα; assay type: biochemical
PI3K delta = PI3K delta (Homo sapiens, UniProt O00329); assay: Kinase-Glo Luminescent Kinase Assay, PI3K delta; assay type: biochemical
[3] = test system: U87MG (human brain star glioblastoma); assay: MTT assay, U87MG; assay type: cell-based; details: U-87 MG, 72 h
Method in brief: (§1)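 Cells seeded at 4~5×10^4 cells/ml in DMEM with 5-10% FBS, treated after 24 h for 72 h at 37° C, 5% CO2, in duplicate wells. MTT (5 mg/ml) added for 4 h, formazan dissolved and OD read at 570 nm.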

[4] = test system: A549 (human lung cancer cells); assay: MTT assay, A549; assay type: cell-based; details: 72 h
Method in brief: as §1

[5] = male, SD, iv, rat plasma, tail vein injection, 2 mg/kg
[6] = male, SD, po, rat plasma, intragastric administration, 20 mg/kg
[7] = rat plasma, intragastric administration, 20 mg/kg
[8] = rat plasma, tail vein injection, 2 mg/kg

Chain of PI3K delta (O00329 whole entry): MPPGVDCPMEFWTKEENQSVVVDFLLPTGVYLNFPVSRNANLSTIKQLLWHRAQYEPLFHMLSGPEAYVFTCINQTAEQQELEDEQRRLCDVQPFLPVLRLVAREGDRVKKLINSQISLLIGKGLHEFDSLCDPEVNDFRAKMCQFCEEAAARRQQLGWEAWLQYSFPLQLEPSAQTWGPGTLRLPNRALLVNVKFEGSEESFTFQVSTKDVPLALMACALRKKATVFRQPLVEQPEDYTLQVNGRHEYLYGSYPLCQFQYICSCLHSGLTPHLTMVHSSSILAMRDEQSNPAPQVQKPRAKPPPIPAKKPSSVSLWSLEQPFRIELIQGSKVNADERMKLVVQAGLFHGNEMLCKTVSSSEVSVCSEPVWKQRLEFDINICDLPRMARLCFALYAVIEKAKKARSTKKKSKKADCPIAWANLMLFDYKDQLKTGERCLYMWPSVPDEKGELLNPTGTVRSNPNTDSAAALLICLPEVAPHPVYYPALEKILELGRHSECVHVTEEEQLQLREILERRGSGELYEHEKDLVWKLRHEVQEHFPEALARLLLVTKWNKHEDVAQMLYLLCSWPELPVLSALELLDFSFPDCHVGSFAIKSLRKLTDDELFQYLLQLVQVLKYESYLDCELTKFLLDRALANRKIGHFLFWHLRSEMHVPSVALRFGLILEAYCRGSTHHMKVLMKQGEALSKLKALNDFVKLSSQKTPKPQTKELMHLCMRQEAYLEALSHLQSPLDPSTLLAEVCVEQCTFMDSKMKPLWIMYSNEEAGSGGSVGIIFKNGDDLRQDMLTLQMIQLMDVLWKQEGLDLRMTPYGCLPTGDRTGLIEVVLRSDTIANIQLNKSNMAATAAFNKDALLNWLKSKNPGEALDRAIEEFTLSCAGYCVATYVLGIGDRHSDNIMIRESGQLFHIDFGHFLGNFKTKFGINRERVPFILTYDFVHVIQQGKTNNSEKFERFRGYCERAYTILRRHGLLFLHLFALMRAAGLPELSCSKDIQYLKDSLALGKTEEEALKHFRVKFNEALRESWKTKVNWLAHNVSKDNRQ
Chain of PI3K delta (P27986 whole entry partner): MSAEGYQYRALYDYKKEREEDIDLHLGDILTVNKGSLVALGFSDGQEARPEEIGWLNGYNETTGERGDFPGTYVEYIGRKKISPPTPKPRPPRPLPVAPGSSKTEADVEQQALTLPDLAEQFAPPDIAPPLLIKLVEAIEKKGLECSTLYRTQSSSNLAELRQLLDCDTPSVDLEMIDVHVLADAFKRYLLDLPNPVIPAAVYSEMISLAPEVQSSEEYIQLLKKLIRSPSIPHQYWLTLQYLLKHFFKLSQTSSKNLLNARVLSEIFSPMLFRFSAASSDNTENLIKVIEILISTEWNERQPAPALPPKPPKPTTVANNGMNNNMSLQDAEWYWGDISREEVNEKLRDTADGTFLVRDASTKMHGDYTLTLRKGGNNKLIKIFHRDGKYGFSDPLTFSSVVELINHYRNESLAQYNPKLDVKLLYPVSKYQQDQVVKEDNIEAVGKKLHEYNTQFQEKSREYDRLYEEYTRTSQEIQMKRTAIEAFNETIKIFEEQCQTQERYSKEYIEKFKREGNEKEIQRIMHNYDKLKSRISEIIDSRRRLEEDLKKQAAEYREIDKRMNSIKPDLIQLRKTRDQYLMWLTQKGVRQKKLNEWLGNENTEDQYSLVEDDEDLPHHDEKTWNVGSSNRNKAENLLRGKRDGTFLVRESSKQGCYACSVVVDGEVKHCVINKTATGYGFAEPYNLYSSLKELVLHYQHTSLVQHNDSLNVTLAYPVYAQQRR
Chain of PI3Kα (P42336 whole entry, species assumed): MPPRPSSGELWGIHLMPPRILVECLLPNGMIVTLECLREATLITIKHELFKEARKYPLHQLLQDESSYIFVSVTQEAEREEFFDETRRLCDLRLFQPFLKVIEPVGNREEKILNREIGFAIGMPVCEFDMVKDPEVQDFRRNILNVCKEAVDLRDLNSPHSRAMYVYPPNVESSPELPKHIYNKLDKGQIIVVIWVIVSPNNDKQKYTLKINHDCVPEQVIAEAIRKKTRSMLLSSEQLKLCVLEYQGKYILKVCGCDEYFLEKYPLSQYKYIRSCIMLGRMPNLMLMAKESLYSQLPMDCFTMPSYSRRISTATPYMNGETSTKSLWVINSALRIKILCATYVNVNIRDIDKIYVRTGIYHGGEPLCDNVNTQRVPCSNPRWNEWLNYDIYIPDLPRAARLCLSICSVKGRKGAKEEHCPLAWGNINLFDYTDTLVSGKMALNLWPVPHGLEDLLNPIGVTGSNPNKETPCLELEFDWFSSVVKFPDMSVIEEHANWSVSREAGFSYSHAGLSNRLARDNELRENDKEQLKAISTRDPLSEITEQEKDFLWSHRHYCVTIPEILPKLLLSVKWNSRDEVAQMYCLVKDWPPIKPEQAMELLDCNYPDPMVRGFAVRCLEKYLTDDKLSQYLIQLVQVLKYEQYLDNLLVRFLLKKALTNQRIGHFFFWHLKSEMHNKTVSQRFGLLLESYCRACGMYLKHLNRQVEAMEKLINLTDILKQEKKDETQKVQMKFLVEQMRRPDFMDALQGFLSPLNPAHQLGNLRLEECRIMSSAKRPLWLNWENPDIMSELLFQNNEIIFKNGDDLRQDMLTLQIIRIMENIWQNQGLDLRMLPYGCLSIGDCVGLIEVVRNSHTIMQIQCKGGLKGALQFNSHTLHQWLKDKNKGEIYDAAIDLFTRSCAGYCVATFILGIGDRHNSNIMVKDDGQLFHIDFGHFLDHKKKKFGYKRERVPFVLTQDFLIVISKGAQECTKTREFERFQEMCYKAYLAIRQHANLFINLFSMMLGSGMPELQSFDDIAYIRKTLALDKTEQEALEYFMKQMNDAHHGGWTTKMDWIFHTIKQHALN
Chain of PI3Kα (P27986 whole entry partner, species assumed): as the sequence (P27986 whole entry partner) above

solubility at 20 min [1]: 33.3 mg/mL (≈ 59400 µM) | AUC [2, 5]: 3740 ng·h/mL | Cmax [2, 5]: 999 ng/mL | MRT [2, 5]: 8.54 h | Vd [2, 5]: 5.05 L/kg | clearance [2, 5]: 8.92 mL/min/kg | AUC(0-t) [2, 5]: 3450 ng·h/mL | AUC [2, 6]: 35600 ng·h/mL | Cmax [2, 6]: 7120 ng/mL | MRT [2, 6]: 6.46 h | Tmax [2, 6]: 0.5 h | AUC(0-t) [2, 6]: 34100 ng·h/mL | half-life ([2]; male, SD, iv, 2 mg/kg, rat plasma, tail vein injection): 6.55 h | bioavailability ([2]; male, SD, 20 mg/kg, read-out: Absolute bioavailability F0-t): 98.8% | bioavailability ([2]; male, SD, 20 mg/kg, read-out: Absolute bioavailability F0-∞): 95.2% | half-life ([2]; male, SD, po, 20 mg/kg, rat plasma, intragastric administration): 4.4 h | AUMC [2, 7]: 230.2 μg/mL · h | AUMC(0-24) [2, 7]: 183.0 μg/mL · h | k [2, 7]: 0.1573 h⁻¹ | t1/2 [2, 7]: 4.406 h | AUMC [2, 8]: 31.95 μg/mL · h | AUMC(0-24) [2, 8]: 22.23 μg/mL · h | k [2, 8]: 0.1063 h⁻¹ | IC50 (PI3Kα): 1.3 nM | IC50 (PI3K delta): 3.8 nM | IC50 [3]: 0.051 µg/mL (≈ 0.091 µM) | IC50 [4]: 0.00247 µg/mL (≈ 0.00441 µM)
SMILES: COc1ncc(-c2ccc3nccc(-c4ccc(CN(C)C)cc4)c3c2)cc1NS(=O)(=O)c1ccc(F)cc1F [Compound 9, N-(5-(4-(4-((dimethylamine)methyl)phenyl)quinolin-6-yl)-2-methoxypyridine-3-yl)-2,4-difluorobenzenesulfonamide]
